Experimental findings from patent publication US20220090023A1, “METHODS FOR REGULATING POTENCY OF PLURIPOTENT STEM CELLS AND APPLICATIONS THEREOF” (ACADEMIA SINICA, priority 2018, published 2022) are described below.

Format in all cases: cell-based, human
The test system of one experiment is HUES6. Nature of the experiment: IC50 analyses of three inhibitors of cell growth, HUES6. The procedure:
(§1) For feeder-free experiments, cells were cultured in a chemically defined medium (Essential 8 medium).
(§2) hESCs were cultured with Essential 8 medium (Thermo Fisher, A1517001) which containing 15% Alamar blue at 37° C. for 5 hours. The activities were calculated by measuring absorbance at 570 nm and 600 nm. To count the cell numbers with trypan blue assay, cells were treated with trypsin and the suspended cells were mixed 0.2% trypan blue (1:1) and counted with a hemocytometer.
(§3) To check the functional roles of cholesterol on pluripotency, cholesterol inhibitor simvastatin, AY9944, Methyl-β-cyclodextrin (MBCD) were used to inhibit cholesterol biosynthesis (FIG. 4A). […] HMGCR is the rate-limiting enzyme of cholesterol biosynthesis. The side effects of statin are few and no cytotoxic side effects in human has been reported. AY9944 inhibits Δ7-dehydrocholesterol reductase (DHCR7), and decrease levels of cholesterol (Wassila Gaoua, 2000). Methyl-β-cyclodextrin (MBCD) directly deprived cellular cholesterol (Mahammad and Parmryd, 2015) (FIG. 4A). […] Next, we would like to know whether PSCs are more rely on cholesterol pathway. Thus, we compared the sensitivities of three cholesterol inhibitors in PSCs and three somatic fibroblast cells. […]

Another experiment concerns H9. Nature of the experiment: IC50 analyses of three inhibitors of cell growth, H9. On the procedure: as §1, §2, §3
The subject of a further experiment is hBMSC. As to the kind of experiment: IC50 analyses of three inhibitors of cell growth, hBMSC. To be noted: for IC50: hBMSC, inhibitor treatments for 3 days; for hPSCs more sensitive than human bone marrow mesenchymal stem cells (hBMMSCs): hBMMSCs vs hPSCs. The procedure:
(§4) Human BMMSCs (Lonza) were cultured in MSC NutriStem XF Medium (Defined, xeno-free, serum-free medium) and grown on Corning CellBIND Surface plates with inhibitor treatments for 3 days. Human neural stem cells (NSCs) were differentiated from H9 hESCs with Gibco PSC Neural Induction Medium (serum-free medium) for 7 days. And the NSCs were replated on matrigel-coated plate and supplied with each inhibitors for 3 days.
(§5) To check the functional roles of cholesterol on pluripotency, cholesterol inhibitor simvastatin, AY9944, Methyl-β-cyclodextrin (MBCD) were used to inhibit cholesterol biosynthesis (FIG. 4A). […] HMGCR is the rate-limiting enzyme of cholesterol biosynthesis. The side effects of statin are few and no cytotoxic side effects in human has been reported. AY9944 inhibits Δ7-dehydrocholesterol reductase (DHCR7), and decrease levels of cholesterol (Wassila Gaoua, 2000). Methyl-β-cyclodextrin (MBCD) directly deprived cellular cholesterol (Mahammad and Parmryd, 2015) (FIG. 4A). […] Next, we would like to know whether PSCs are more rely on cholesterol pathway. Thus, we compared the sensitivities of three cholesterol inhibitors in PSCs and three somatic fibroblast cells. Primary human foreskin fibroblasts (CRL-2097), a human foreskin fibroblast cell line (BJ-5Ta), and a fetal lung fibroblast cell line (IMR-90) were used for comparison.

The next experiment concerns hNSC. Nature of the experiment: IC50 analyses of three inhibitors of cell growth, hNSC. To be noted: for IC50: hNSC, inhibitors for 3 days; for hPSCs more sensitive than human neural stem cells (hNSCs): hNSCs vs hPSCs. The procedure: as §4, §5
Another experiment has as its system BJ-5Ta. Nature of the experiment: IC50 analyses of three inhibitors of cell growth, BJ-5Ta.
Source text: as §5

A further experiment concerns CRL-2097. Nature of the experiment: IC50 analyses of three inhibitors of cell growth, CRL-2097. As to conditions: for IC50 higher in primary fibroblasts than HUES6: primary fibroblasts vs HUES6.
Source text: as §5

The subject of another experiment is IMR-90. Nature of the experiment: IC50 analyses of three inhibitors of cell growth, IMR-90.
Source text: as §5

Experiment [1] has as its system PODXL downregulated HUES6 hESCs. Nature of the experiment: Cholesterol rescue in PODXL knockdown hESCs (Alamar blue, ALP activity). To be noted: cholesterol addition for 4 days. On the procedure: (§6) FIGS. 5A-5B. Cholesterol addition rescue hESC renewal in PODXL knockdown cells. […] Quantification of Annexin V/PI-positive cells was executed in triplicates (bottom left panel). P-values were calculated by performing one-way ANOVA against the shRFP hESCs (*p<0.05, **p<0.01, ***p<0.001). (Bottom right panel) Cholesterol restores the c-MYC/TERT expressions decrease by the expression of shPODXL. Western Blots were executed in PODXL knockdown HUES6 hESCs with the addition of cholesterol for 4 days.
as §2
Alkaline phosphatase (ALP) activities were calculated by adding the substrate of ALP, p-nitrophenyl phosphate (pNPP) (N7653, sigma), in the culture medium. The plate were incubated at 37° C. less than 5 minutes, then the absorbance was measured at 405 nm. For Alkaline phosphatase (ALP) staining, hPSCs were first washed with PBS and used 4% formaldehyde as a fixative. After fixing for 3 minutes, the cells were washed with 1×PBS and were stained by ALP staining reagent (Sigma). Then the cells were further washed by PBS. […]
For orientation: The colour change of resazurin is a common sign of viable cells or microbes.

Another experiment has as its system PODXL knockdown hESCs. Nature of the experiment: Annexin V/PI apoptosis in PODXL knockdown hESCs with cholesterol. As to conditions: PODXL knockdown for six days. On the procedure:
as §6
hESCs were dissociated by accutase. The cells were stained according to manufactures' instructions (eBioscience, 88-8005-72). In brief, cells (5×10^5) were suspended at in 100 μl 1× binding buffer, and then stained with 2.5 μl of Annexin V-FITC. After reaction for 20 min at room temperature, the cells were incubated with 2.5 μl of PI solution for 10 min. Then the cells were diluted with PBS and analyzed with a flow cytometer.
To examine if cholesterol is the major downstream of PODXL, rescue experiment with cholesterol was performed.

For experiment [2], the system named is c-MYC, TERT, HMGCR, PODXL, TRA-1-60. Nature of the experiment: Western blot in PODXL knockdown hESCs with cholesterol. To be noted: PODXL downregulated cells, cholesterol for 4 days. On the procedure:
as §6
Whole-cell protein extracts were purified from hPSCs or using RIPA lysis buffer (1% NP40, 50 mM Tris, pH 8.0, 150 mM NaCl, 2 mM EDTA) with the presence of protease inhibitor cocktail (Roche, 04693132001). Protein concentration was quantified by Bio-Rad Bradford Protein Assay. Equal amounts of protein were subjected to a 10% SDS-PAGE gel and blotted onto 0.22 um PVDF membrane (Millipore, ISEQ00010). Blots were blocked in 5% BSA/TBST at room temperature for 1 hr. The blots were incubated with the primary antibodies in 5% BSA/TBST at 4° C. overnight. […]
In general terms: Immunoblotting shows a protein as a band on a membrane.

For a further experiment, the system named is CRL2097. As to the kind of experiment: iPSC reprogramming efficiency with cholesterol (alkaline phosphatase assay). As to conditions: with OSKM 4 factors. On the procedure: FIG. 6. The addition of cholesterol promote the iPSCs reprogramming efficiency. CRL2097 (passage 9) were seeded and infected with lentivirual vector (OSKM) with final concentration of cholesterol (0, 0.5×, 1×, 2×, 5×, 8×) which was diluted from 500× concentrated SyntheChol® NSO Supplement (S5442, Sigma). Alkaline phosphatase assay was performed to assay the reprogramming efficiency.
CRL2097 (passage 9) were seeded and infected with lentivirual vector (OSKM) with final concentration of cholesterol (0, 0.5×, 1×, 2×, 5×, 8×) which was diluted from 500× concentrated SyntheChol® NSO Supplement (S5442, Sigma). After 4 days viral transduction, cell were replated on matrigel-coated 6-well plates as cell number 27, 000 per well. 2 days later for cell attachment, cholesterol were supplied continually during reprogramming procedure. To better evaluate cholesterol effect to iPSC generation, serum-free defined E8 medium (containing 250 μM sodium butyrate, 50 μg/ml Vitamin C) was used for iPSC generation.
In addition, cholesterol can boost the reprogramming efficiency (total AP positive, 7.62-fold) with OSKM 4 factors.

The next experiment relates to HUES6 hESCs. As to the kind of experiment: Alkaline phosphatase activity after cholesterol inhibitor treatment. As to conditions: treatment for 3 days.
Source text: as §5

Experiment [3] concerns PODXL overexpressing hESCs. As to the kind of experiment: Inhibitor treatment of PODXL overexpressing hESCs (Alamar blue, ALP activity). As to conditions: PODXL overexpressed one day, then inhibitor treatment for 3 days. The procedure: as §2

Read-outs that look alike come from different tables or passages of the source.

As a reminder, the IC50 is the concentration that inhibits the measured activity by half. Low values mean higher potency, high ones lower potency. In the case of `CCC(C)(C)C(=O)O[C@H]1C[C@@H](C)C=C2C=C[C@H](C)[C@H](CC[C@@H]3C[C@@H](O)CC(=O)O3)[C@H]21` [Simvastatin, (1S,3R,7S,8S,8aR)-1,2,3,7,8,8a-Hexahydro-3,7-dimethyl-8-[2-[(2R,4R)-tetrahydro-4-hydroxy-6-oxo-2H-pyran-2-yl]ethyl]-1-naphthalenyly-2,2-dimethyl butanoate], the IC50 came out at 0.16 µM in the experiment with HUES6 (Homo sapiens); 0.02 µM in the experiment with H9 (Homo sapiens); 8.97 µM in the experiment with hBMSC (Homo sapiens, 72 h); 31.2 µM in the experiment with hNSC (Homo sapiens, 72 h); 1.96 µM in the experiment with BJ-5Ta (Homo sapiens, no serum); 4.36 µM in the experiment with BJ-5Ta (Homo sapiens, serum). Besides, the IC50 came out at 4.35 µM in the experiment with CRL-2097 (Homo sapiens, CRL-2097, no serum); 5.44 µM with CRL-2097 (Homo sapiens, CRL-2097, serum); 5.46 µM in the experiment on IMR-90 (Homo sapiens, IMR-90, IMR-90, no serum); 4.13 µM with IMR-90 (Homo sapiens, IMR-90, IMR-90, serum). Further, the “hPSCs more sensitive than human bone marrow mesenchymal stem cells (hBMMSCs)” value in the experiment on hBMSC was 163 fold. Moreover, the “hPSCs more sensitive than human neural stem cells (hNSCs)” value in the experiment with hNSC is 568 fold. In addition, the “IC50 higher in primary fibroblasts than HUES6” value in the experiment with CRL-2097 is on record as 52 fold.

Regarding `CC(C)CCC[C@@H](C)[C@H]1CC[C@H]2[C@@H]3CC=C4C[C@@H](O)CC[C@]4(C)[C@H]3CC[C@]12C` [cholesterol], in [1] (Alamar blue), the “relative cell number loss from PODXL knockdown” value is “prevent”. Also, the “reduction in ALP activity from PODXL knockdown” value in [1] is “prevent”. Also, in the experiment on PODXL knockdown hESCs, the “apoptosis of the hPSCs” value is “substantially restored”. The “expression levels of c-MYC, TERT, HMGCR, PODXL, TRA-1-60” value in [2] is reported as “rescued”. For the same compound, in the experiment on CRL2097, the “reprogramming efficiency (total AP positive)” value is recorded as 7.62 fold.

Take Methyl-β-cyclodextrin [MBCD]: the IC50 was found to be 1350 µM with HUES6; 1130 µM with H9; 3290 µM in the experiment with hBMSC; 3020 µM in the experiment on hNSC; 2340 µM in the experiment on BJ-5Ta (no serum); 3770 µM with BJ-5Ta (serum). Also, the IC50 amounted to 2600 µM with CRL-2097 (CRL-2097, no serum); 3860 µM in the experiment with CRL-2097 (CRL-2097, serum); 2640 µM with IMR-90 (IMR-90, no serum); 2810 µM in the experiment with IMR-90 (IMR-90, serum). Besides, the “hPSCs more sensitive than human bone marrow mesenchymal stem cells (hBMMSCs)” value in the experiment on hBMSC came to 2.65 fold. Moreover, in the experiment on hNSC, the “hPSCs more sensitive than human neural stem cells (hNSCs)” value is reported as 2.44 fold. Also, the “IC50 higher in primary fibroblasts than HUES6” value in the experiment with CRL-2097 stood at 2 fold. Besides, in the experiment on HUES6 hESCs, the “Alkaline phosphatase activities (stem cell marker expression)” value is recorded as “hampered”. Also, in [3], the “upregulation in self-renewal (cell growth and ALP activity) by PODXL overexpression” value is listed as “inhibited”.
